Assay results taken from BindingDB's records for patent US20230391786 (Eli Lilly, 2023).

Biological target: Cyclic GMP-AMP synthase (Homo sapiens, UniProt Q8N884)
Test: In Vitro Inhibition Assay
Experimental: In vitro inhibition assay of cGAS activity: Add a 5 μL mixture containing 10 mM Tris-Cl pH 7.5, 50 mM NaCl, 5 mM MgCl2, 1 mM DTT, 0.01% Triton X-100, 60 nM 75-bp dsDNA, […], 50 μM GTP, 10 nM of recombinant human cGAS, and serial dilutions of a test compound in DMSO to a 384-well plate and incubate at room temperature for 3 hours. Quench the reaction by the addition of 100 μL of stop solution containing 0.1% formic acid and 0.1 μM internal standard (3′3′-difluoro cGAMP). Measure the amount of cGAMP produced by RapidFire 365 mass spectrometry and evaluate inhibitory effect of a compound by plotting percent specific inhibition of cGAMP production against log concentration of the test compound.

Chain of Cyclic GMP-AMP synthase (Q8N884 whole entry): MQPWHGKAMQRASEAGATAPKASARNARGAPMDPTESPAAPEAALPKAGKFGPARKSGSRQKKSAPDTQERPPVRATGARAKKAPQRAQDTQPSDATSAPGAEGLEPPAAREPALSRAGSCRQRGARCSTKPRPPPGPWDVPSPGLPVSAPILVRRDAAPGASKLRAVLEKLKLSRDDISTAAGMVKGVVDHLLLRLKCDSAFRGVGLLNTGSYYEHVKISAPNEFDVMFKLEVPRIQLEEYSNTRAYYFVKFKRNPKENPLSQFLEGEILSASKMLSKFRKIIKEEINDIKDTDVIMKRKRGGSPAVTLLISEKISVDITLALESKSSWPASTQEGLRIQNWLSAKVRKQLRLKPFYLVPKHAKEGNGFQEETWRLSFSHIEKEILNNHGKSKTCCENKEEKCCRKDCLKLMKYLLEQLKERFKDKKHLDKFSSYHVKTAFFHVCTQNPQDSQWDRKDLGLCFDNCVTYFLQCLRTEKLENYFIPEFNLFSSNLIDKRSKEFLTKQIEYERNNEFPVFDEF

IC50 [nM]	Structure (SMILES)
83.9	O=C(CCn1cncn1)N1CCn2c(c(-c3cn[nH]c3)c3ccc(Cl)c(Cl)c32)C1 [US20230391786, Example 49]
16.5	Cn1ncnc1COCC(=O)N1CCn2c(c(-c3cn[nH]c3)c3c(OCC#N)cc(Cl)c(Cl)c32)C1 [US20230391786, Example 181]
96.5	OCCn1cc(-n2cc(-c3cn[nH]c3)c3ccc(Cl)cc32)nn1 [US20230391786, Example 229]
62.5	NC1CCn2c1c(-c1cn[nH]c1)c1ccc(Cl)c(Cl)c12 (centres undefined) [US20230391786, Example 241]
